From ChEMBL document CHEMBL6083230, “Synthesis and biological evaluation of ferrostatin-based diamide derivatives as new ferroptosis inhibitors” (Bioorg Med Chem Lett, 2024)
≈ marks a conversion by molar mass, not a printed value. Calls of active or inactive are those of the source. The calls are words filed in the database; no cut-off is given here.

Assays:
[1] = Metabolic stability in mouse liver microsomes assessed as half-life; format: ADME, Microsome
[2] = Kinetic solubility of compound; format: physicochemical; details: read-out: Kinetic_solubility
[3] = Stability in mouse plasma assessed as parent compound remaining measured after 6 hrs; format: ADME, cell-free; details: read-out: Stability
[4] = Metabolic stability in human liver microsomes assessed as half-life; format: ADME, Microsome
HUVEC [5] = test: Anti-ferroptosis activity against […]-induced ferroptosis in HUVEC cells assessed as increase in cell viability at 10 uM incubated for 24 hrs by SRB assay; format: functional, cell-based; details: Homo sapiens
HUVEC [6] = test: Anti-ferroptosis activity against […]-induced ferroptosis in HUVEC cells assessed as increase in cell viability incubated for 24 hrs by SRB assay; format: functional, cell-based; details: Homo sapiens
HUVEC [7] = test: Anti-ferroptosis activity against erastin-induced ferroptosis in HUVEC cells assessed as decrease in intracellular lipid ROS level at 10 uM incubated for 24 hrs by BODIPY 581/591 dye based assay; format: functional, cell-based; details: Homo sapiens
HUVEC [8] = test: Anti-ferroptosis activity against erastin-induced ferroptosis in HUVEC cells assessed as upregulation of intracellular GPX4 level at 10 uM incubated for 24 hrs by Western blot analysis; format: functional, cell-based; details: Homo sapiens
HUVEC [9] = test: Anti-ferroptosis activity against erastin-induced ferroptosis in HUVEC cells assessed as decrease in free ferrous ion level at 10 uM incubated for 24 hrs by Ferro orange fluorescent probe based assay; format: functional, cell-based; details: Homo sapiens
HUVEC [10] = test: Anti-ferroptosis activity against erastin-induced ferroptosis in HUVEC cells assessed as reduction in accumulation of lipid peroxidation at 10 uM incubated for 24 hrs by LPO assay; format: functional, cell-based; details: Homo sapiens
HUVEC [11] = test: Anti-ferroptosis activity against erastin-induced ferroptosis in HUVEC cells assessed as upregulation of intracellular GSH level at 10 uM incubated for 24 hrs; format: functional, cell-based; details: Homo sapiens
HUVEC [12] = test: Anti-ferroptosis activity against erastin-induced ferroptosis in HUVEC cells assessed as reduction in malondialdehyde content at 10 uM incubated for 24 hrs by lipid peroxidation MDA assay; format: functional, cell-based; details: Homo sapiens

SMILES	Activity (HUVEC [5])	EC50 (HUVEC [6]) [nM]	also measured
CCNC(=O)c1ccc(NC2CCCCC2)c(NCc2ccccc2)c1	Active; Compound Exhibited Comparable Activity To Ferrostatin-1	6200	half-life [1]: 19.6 min; solubility kinetic [2]: 50 µM (≈ 17.6 µg/mL); remaining at 6 h [3]: 0%; half-life [4]: 38.9 min
CCNC(=O)c1ccc(NC2CCCCC2)c(NC(=O)Cc2ccc(OC)c(Br)c2)c1	inactive	–	–
CCNC(=O)c1ccc(NC2CCCCC2)c(NC(=O)/C=C/c2cccc(OC)c2OC)c1	Active	–	–
CCOC(=O)c1ccc(NC2CCCCC2)c(N)c1	Active	–	Activity (HUVEC [7]): Active; half-life [1]: 2.7 min; Activity (HUVEC [8]): Active; Activity (HUVEC [9]): Active; solubility kinetic [2]: > 200 µM; Activity (HUVEC [10]): Active; remaining at 6 h [3]: 18%; half-life [4]: 16.8 min; Activity (HUVEC [11]): Active; Activity (HUVEC [12]): Active
CCNC(=O)c1ccc(NC2CCCCC2)c(NC(=O)Cc2ccc(F)c(Br)c2)c1	Active	–	–
CCNC(=O)c1ccc(NC2CCCCC2)c(NC(=O)Cc2ccc(OC)c(OC)c2)c1	Active	–	–
CCNC(=O)c1ccc(NC2CCCCC2)c(NC(=O)Cc2cccc(OC)c2)c1	Active	–	–
CCNC(=O)c1ccc(NC2CCCCC2)c(NC(=O)/C=C/c2ccc(O)c(OC)c2)c1	Active	–	–
CCNC(=O)c1ccc(NC2CCCCC2)c(NC(=O)CCc2ccc(OC)cc2)c1	Active	–	–
CCNC(=O)c1ccc(NC2CCCCC2)c(NC(=O)/C=C/c2ccccc2OC)c1	Active; Compound Exhibited Comparable Activity To Ferrostatin-1	1100	–
CCNC(=O)c1ccc(NC2CCCCC2)c(NC(=O)Cc2ccc(C)cc2)c1	inactive	–	–
CCNC(=O)c1ccc(NC2CCCCC2)c(NC(=O)Cc2cc(Br)ccc2F)c1	Active	–	–
CCNC(=O)c1ccc(NC2CCCCC2)c(NC(=O)Cc2cc(Br)ccc2Br)c1	inactive	–	–
CCNC(=O)c1ccc(NC2CCCCC2)c(NC(=O)Cc2cc(F)c(F)cc2Br)c1	Active; Compound Exhibited Comparable Activity To Ferrostatin-1	810	–
CCNC(=O)c1ccc(NC2CCCCC2)c(NC(=O)/C=C/c2ccccc2)c1	Active; Compound Exhibited Comparable Activity To Ferrostatin-1	900	–
CCNC(=O)c1ccc(NC2CCCCC2)c(NC(=O)Cc2ccc(OC)cc2)c1	Active; Compound Exhibited Comparable Activity To Ferrostatin-1	980	–
CCNC(=O)c1ccc(NC2CCCCC2)c(NC(=O)Cc2cccc(Br)c2)c1	inactive	–	–
CCNC(=O)c1ccc(NC2CCCCC2)c(NC(=O)C(c2ccccc2)c2ccccc2)c1	Active; Compound Exhibited Comparable Activity To Ferrostatin-1	1000	–
CCNC(=O)c1ccc(NC2CCCCC2)c(NC(=O)/C=C/c2cc(OC)c(OC)cc2OC)c1	Active; Compound Exhibited Comparable Activity To Ferrostatin-1; Most Significant Efficacy Observed	580	Activity (HUVEC [7]): Active; half-life [1]: 31.4 min; Activity (HUVEC [8]): Active; Activity (HUVEC [9]): Active; Higher Effectiveness Compared To Ferrostatin-1; solubility kinetic [2]: 33.3 µM (≈ 16 µg/mL); Activity (HUVEC [10]): Active; remaining at 6 h [3]: 48%; half-life [4]: 62.7 min; Activity (HUVEC [11]): Active; Activity (HUVEC [12]): Active
CCNC(=O)c1ccc(NC2CCCCC2)c(NC(=O)Cc2ccc(F)cc2)c1	Active	–	–
CCNC(=O)c1ccc(NC2CCCCC2)c(NC(=O)Cc2cc(Br)cc(Br)c2)c1	Active	–	–
CCNC(=O)c1ccc(NC2CCCCC2)c(NC(=O)/C=C/c2cccc(Br)c2)c1	Active	–	–
CCNC(=O)c1ccc(NC2CCCCC2)c(NC(=O)Cc2cc(OC)c(OC)c(OC)c2)c1	inactive	–	–
